Results taken from patent US20200008421A1, “ADJUVANTS” (SYNGENTA PARTICIPATIONS AG, priority 2016, published 2020).

Tests used:
Type in all cases: in vivo
[1] = tested on: Alopecurus myosuroides (ALOMY), Avena fatua (AVEFA), Lolium perenne (LOLPE), Setaria viridis (SETVI); assay: Glasshouse herbicide efficacy of pinoxaden with adjuvants (Example 3); conditions: pinoxaden EC, mean over 7.5 and 15 g/ha, three replicates, four weed species; 21 days after application; adjuvants 0.2% v/v; 200 l/ha
Procedure: (§1) Pinoxaden was added to the spray tank as a standard EC (emulsifiable concentrate) formulation.
Each spray test was replicated three times. […] The results shown in Table 3 below are mean averages over the two rates of pinoxaden, the three replicates and the four weed species.

[2] = tested on: Alopecurus myosuroides (ALOMY), Avena fatua (AVEFA), Lolium perenne (LOLPE), Setaria viridis (SETVI); assay: Glasshouse herbicide efficacy of pinoxaden with adjuvants (Example 7); conditions: pinoxaden EC, mean over 7.5 and 15 g/ha, three replicates, four weed species; 21 days after application; adjuvants 0.2% v/v; 200 l/ha
Procedure: as §1
The spray tests were also carried out using pinoxaden in conjunction with Adjuvant 2 or the standard adjuvant tris(2-ethylhexyl) phosphate. […] The weed species were Alopecurus myosuroides (ALOMY), Avena fatua (AVEFA); Lolium perenne (LOLPE) and Setaria viridis (SETVI).
Each spray test was replicated three times. […] The results shown in Table 7 below are mean averages over the two rates of pinoxaden, the three replicates and the four weed species.

[3] = tested on: Alopecurus myosuroides (ALOMY), Avena fatua (AVEFA), Lolium perenne (LOLPE), Setaria viridis (SETVI); assay: Glasshouse herbicide efficacy of pinoxaden with adjuvants (Example 10); conditions: pinoxaden EC, mean over 7.5 and 15 g/ha, three replicates, four weed species; 21 days after application; adjuvants 0.2% v/v; 200 l/ha
Procedure: The efficacy of Adjuvant 5 as an adjuvant for the herbicide pinoxaden was tested in a glasshouse against four weed species. Pinoxaden was added to the spray tank as a standard EC (emulsifiable concentrate) formulation.
The spray tests were also carried out using pinoxaden in conjunction with Adjuvant 5, Adjuvant 6 or the standard adjuvant tris(2-ethylhexyl) phosphate. […] The weed species were Alopecurus myosuroides (ALOMY), Avena fatua (AVEFA), Lolium perenne (LOLPE) and Setaria viridis (SETVI). Each spray test was replicated three times. […] The results shown in Table 10 below are mean averages over the two rates of pinoxaden, the three replicates and the four weed species.

[4] = tested on: Polygonum convolvulus (POLCO), Brachiaria plantaginea (BRAPL), Commelina benghalensis (COMBE), Digitaria sanguinalis (DIGSA); assay: Glasshouse herbicide efficacy of mesotrione with adjuvants (Example 2); conditions: mesotrione SC, mean over 30 and 60 g/ha, three replicates, four weed species; 21 days after application; adjuvants 0.2% v/v, Tween 20 0.5% v/v; 200 l/ha
Procedure: (§2) Mesotrione was added to the spray tank as a standard SC (suspension concentrate) formulation.
The four weed species were Polygonum convolvulus (POLCO; growth stage 13-15), Brachiaria plantaginea (BRAPL; growth stage 13-21), Commelina benghalensis (COMBE; growth stage 12-13) and Digitaria sanguinalis (DIGSA; growth stage 13-14).
Each spray test was replicated three times. […] The results shown in Table 2 below are mean averages over the two rates of mesotrione, the three replicates and the four weed species.

[5] = tested on: Polygonum convolvulus (POLCO), Brachiaria plantaginea (BRAPL), Commelina benghalensis (COMBE), Digitaria sanguinalis (DIGSA); assay: Glasshouse herbicide efficacy of mesotrione with adjuvants (Example 6); conditions: mesotrione SC, mean over 30 and 60 g/ha, three replicates, four weed species; 21 days after application; Adjuvant 2 0.2% v/v, Tween 20 0.5% v/v; 200 l/ha
Procedure: as §2
The spray tests were also carried out using mesotrione in conjunction with Adjuvant 2 or the well-known adjuvant Tween® 20. […] The four weed species were Polygonum convolvulus (POLCO), Brachiaria plantaginea (BRAPL), Commelina benghalensis (COMBE) and Digitaria sanguinalis (DIGSA). Each spray test was replicated three times. […] The results shown in Table 6 below are mean averages over the two rates of mesotrione, the three replicates and the four weed species.

[6] = tested on: Polygonum convolvulus (POLCO), Brachiaria plantaginea (BRAPL), Commelina benghalensis (COMBE), Digitaria sanguinalis (DIGSA); assay: Glasshouse herbicide efficacy of mesotrione with adjuvants (Example 9); conditions: mesotrione SC, mean over 30 and 60 g/ha, three replicates, four weed species; 21 days after application; adjuvants 0.2% v/v, Tween 20 0.5% v/v; 200 l/ha
Procedure: The efficacy of Adjuvant 5 as an adjuvant for the herbicide mesotrione was tested in a glasshouse against four weed species. Mesotrione was added to the spray tank as a standard SC (suspension concentrate) formulation.
The spray tests were also carried out using mesotrione in conjunction with Adjuvant 5, Adjuvant 6 or the well-known adjuvant Tween® 20. […] The four weed species were Polygonum convolvulus (POLCO), Brachiaria plantaginea (BRAPL), Commelina benghalensis (COMBE) and Digitaria sanguinalis (DIGSA).
Each spray test was replicated three times. […] The results shown in Table 9 below are mean averages over the two rates of mesotrione, the three replicates and the four weed species.

[7] = tested on: Abutilon theophrasti (ABUTH), Chenopodium album (CHEAL), Digitaria sanguinalis (DIGSA), Setaria viridis (SETVI); assay: Glasshouse herbicide efficacy of nicosulfuron with adjuvants (Example 1); conditions: nicosulfuron WG, mean over 30 and 60 g/ha, three replicates, four weed species; 21 days after application; adjuvants 0.2% v/v, Atplus 411F 0.5% v/v; 200 l/ha
Procedure: (§3) Nicosulfuron was added to the spray tank as a standard WG (water dispersible granule) formulation.
Each spray test was replicated three times. […] The results shown in Table 1 below are mean averages over the two rates of nicosulfuron, the three replicates and the four weed species.

[8] = tested on: Abutilon theophrasti (ABUTH), Chenopodium album (CHEAL), Digitaria sanguinalis (DIGSA), Setaria viridis (SETVI); assay: Glasshouse herbicide efficacy of nicosulfuron with adjuvants (Example 5); conditions: nicosulfuron WG, mean over 30 and 60 g/ha, three replicates, four weed species; 21 days after application; Adjuvant 2 0.2% v/v, Atplus 411F 0.5% v/v; 200 l/ha
Procedure: as §3
The spray tests were also carried out using nicosulfuron in conjunction with Adjuvant 2 or the commercially available tank-mix adjuvant, Atplus 411F®. […] The weed species were Abutilon theophrasti (ABUTH), Chenopodium album (CHEAL), Digitaria sanguinalis (DIGSA) and Setaria viridis (SETVI).
Each spray test was replicated three times. […] The results shown in Table 5 below are mean averages over the two rates of nicosulfuron, the three replicates and the four weed species.

For `CCc1cc(C)cc(CC)c1-c1c(OC(=O)C(C)(C)C)n2n(c1=O)CCOCC2` [Pinoxaden, pinoxaden], the “Mean across species % phytotoxicity (mean percentage kill, leaf area killed)” value [1] was 3.6%, the “Mean across species % phytotoxicity (mean percentage kill, leaf area killed)” value [2] was 3.4% and the “Mean across species % phytotoxicity (mean percentage kill, leaf area killed)” value [3] was 7.5%.
For `CS(=O)(=O)c1ccc(C(=O)C2C(=O)CCCC2=O)c([N+](=O)[O-])c1` [Mesotrione, mesotrione], the “Mean across species % phytotoxicity (mean percentage kill, leaf area killed)” value [4] was 25.6%, the “Mean across species % phytotoxicity (mean percentage kill, leaf area killed)” value [5] was 17.8% and the “Mean across species % phytotoxicity (mean percentage kill, leaf area killed)” value [6] was 27.5%.
In the case of `COc1cc(OC)nc(NC(=O)NS(=O)(=O)c2ncccc2C(=O)N(C)C)n1` [Nicosulfuron, nicosulfuron], the “Mean across species % phytotoxicity (mean percentage kill, leaf area killed)” value [7] is reported as 34.4% and the “Mean across species % phytotoxicity (mean percentage kill, leaf area killed)” value [8] is reported as 64.5%.
